In paper PMC9633773, “Discovering cell-active BCL6 inhibitors: effectively combining biochemical HTS with multiple biophysical techniques, X-ray crystallography and cell-based assays” (Scientific Reports, 2022):
Converted amounts (≈) assume the structure as drawn. Where two headings read alike, the source gives them in different places.

How the values were obtained:
Trx-6His-BCL6 BTB = target: T1, Trx-6His-BCL6 BTB (Homo sapiens, UniProt P41182); assay: TR-FRET assay, Trx-6His-BCL6 BTB / BCOR-A633 peptide; assay type: biochemical
T1 construct: made in house; host or cells: E. coli BL21-AI
Method: Each 15 µL TR-FRET reaction in 384-well black Proxiplate (Perkin Elmer) contained 1 or 10 nM Trx-6His-BCL6 BTB, 300 nM BCOR-A633 and 0.5 or 1 nM anti-6His-Terbium cryptate (Perkin Elmer), in the FP assay buffer (25 mM Hepes pH 8, 100 mM NaCl, 0.05% (v/v) Tween20, 0.5 mM TCEP), supplemented with 0.05% (w/v) bovine serum albumin. Test compounds in DMSO or DMSO alone were added to the wells using and Echo 550 acoustic dispenser to give the appropriate test concentration in 0.7% v/v DMSO final. After a 2 h incubation at room temperature, the plates were read on an Envision plate reader or a Pherastar FSX plate reader with 337 nm laser excitation, a first emission filter at 665 nm and a second emission filter at 615 or 620 nm. Data were normalised and IC50 determined as described above for the FP assay.

Caco-2 efflux ratio = assay type: in vitro ADME; conditions: human
[1] = PAMPA passive permeability; assay type: in vitro ADME; parameters: PAMPA pH7.4: unit not given here; conditions: pH 7.4
Method: Passive diffusion permeability was measured using a parallel artificial membrane permeability assay (PAMPA). The assay used an artificial membrane consisting of 2% (v/v) phosphatidyl choline in dodecane (Sigma Aldrich, Dorset, UK). The donor plate was a MultiScreen-IP Plate with a 0.45 µm hydrophobe Immobilon-P membrane (Millipore, UK) and the acceptor plate was a MultiScreen 96-well transport receiver plate (Millipore, UK). The permeability of test compound (10 µM) was measured at pH 7.4 in buffer containing 1% (w/v) Bovine Serum Albumin (Sigma Aldrich, Dorset, UK) following a 16 h incubation at 30 °C. After transfer and centrifugation, sample supernatants were diluted and analysed using a Waters (Milford, MA, US) TQ-S LC-MS/MS system. Permeability values (cm/s) were calculated using the following equation, where VD and VA are the volumes of donor and acceptor, respectively, and area is the surface area of the membrane x porosity: Papp=C x ln1-Drugacceptor/Drugequilibrium,whereC=VDxVA/VD+VAx area x time

[2] = target: T2, full-length BCL6/SMRT protein–protein interaction in HEK293T cells (Homo sapiens, UniProt P41182); assay: NanoBRET cellular assay; assay type: cell-based
T2 construct: DNA encoding full length BCL6 and SMRT was inserted into pFC32K NanoLuc and pFC14K HaloTag vectors; expressed in transfected cells; host or cells: HEK293T

HPLC aqueous solubility = assay type: physicochemical; conditions: aqueous buffer, kinetic from dmso stock; PBS buffer pH 7.4, 1% DMSO, maximum targeted concentration 100 µM; read-out: HPLC Sol.
Method: Solubility measurements by quantitative ^1H-NMR or HPLC method were performed as described previously.

[3] = target: T3, ePL-tagged BCL6 BTB in HEK293T cells (Homo sapiens, UniProt P41182); assay: InCELL Hunter cellular target engagement assay; assay type: cell-based
T3 construct: BCL6 BTB domain (HDSD51 plasmid construct encoding amino-acids 14–135) fused to a C-terminal ePL tag; expressed in transfected cells; host or cells: HEK293T
Method: BCL6 cellular target engagement assays were established using the InCELL Hunter™ Target Engagement Kit from DiscoverX-Eurofin. For the assay, the expressed protein comprised the N-terminal truncated region of BCL6 BTB domain (HDSD51 plasmid construct encoding amino-acids 14–135) fused to a C-terminal ePL tag (enhanced ProLabel, DiscoverX). Constructs were transfected over 24 h in HEK293T cells using Lipofectamine 3000 (ThermoFisher Scientific) and 2.5 × 10^5 transfected cells / well in phenol red-free OptiMEM medium (ThermoFisher Scientific) were re-plated in 384 assay plates before treating with compounds for 6 h. To complete the assay, cells were incubated for 30 min at room temperature with the InCell Hunter assay reagents mix following the manufacturer’s instructions, before reading the chemiluminescent signal on an Envision (Perkin Elmer) plate reader.

Row | IC50 (Trx-6His-BCL6 BTB; 1 or 10 nM Trx-6His-BCL6 BTB, read-out: TR-FRET IC50) [nM] | efflux ratio (Caco-2 efflux ratio) | Papp at 16 h, 10 µM ([1]; PAMPA, read-out: PAMPA passive cell permeability) [×10⁻⁶ cm/s] | IC50 ([2]; BCL6.NanoLuc/SMRT.HaloTag configuration, HEK293T, 6 h, geometric mean n=3–4, read-out: Nano BRET Geo Mean IC50) [nM] | NanoBRET inhibition, HaloTag.BCL6/NanoLuc.SMRT combination ([2]; BCL6 N-terminally fused to HaloTag) | IC50 ([2]; Figure 7B, C-terminally NanoLuc tagged BCL6 / SMRT.HaloTag, read-out: NanoBRET IC50, BCL6.NanoLuc) [nM] | solubility kinetic (HPLC aqueous solubility) [µM] | IC50 (Trx-6His-BCL6 BTB; 1 nM BCL6 BTB domain, geometric mean n=3–5, read-out: TR-FRET Geo Mean IC50) [nM] | EC50 ([3]; Figure 6B, ePL-tagged BCL6 BTB 14–135, 6 h, n=3, read-out: InCELL Hunter EC50) [nM] | EC50 ([3]; Table S3, C-terminally ePL-tagged BCL6 BTB 14-135, 6 hours, read-out: InCELL Geomean EC50) [nM] | PAMPA pH7.4 [1] | SMILES
1 | 2100 ± 100 | 0.72 | 110 |  |  |  |  |  |  |  |  | CC(C)OC(=O)c1cc(Nc2ccc3c(c2)CC(=O)N3C)n2nccc2n1 [Compound 25, isopropyl 7-((1-methyl-2-oxoindolin-5-yl)amino)pyrazolo[1,5-a]pyrimidine-5-carboxylate]
2 |  |  |  | 2930 | only very weak inhibition | 3000 | 80 (≈ 35.4 µg/mL) | 500 | 24000 ± 9000 | 23700 | 19 | CNC(=O)c1cc(Nc2ccc3c(c2)n(CCC(C)(C)O)c(=O)n3C)c(C#N)c(Cl)n1 [Compound 27]
